The values that follow come from patent publication US5626864A, “Preparation of colloidal aqueous solutions of active substances of low solubility” (priority 1993, dated 1997).

One may read the solubility as the concentration that dissolves in the medium under given conditions. Read a high solubility as much dissolved substance.

Series [1] in a line: Sterile filtration through a 0.2 μm filter (criterion for successful solubilization). It counts as physicochemical. Here is the method:
The following examples illustrate the invention. The criterion for successful solubilization is the possibility of sterile filtration through a 0.2 μm filter.
(§1) 40 mg of Z were dissolved in 10 ml of dichloromethane/methanol (9+1). All the solvent was removed again from the solution in a rotary evaporator under reduced pressure. 8 ml of a buffer solution (consisting of o-phsophoric acid [0.01 M] and sucrose [0.265 M] and EDTA disodium salt [0.1 mg/ml], pH about 1.9) were added to the residue, and the flask was rotated on the rotary evaporator (without reducing the pressure) with the water at 50° C for 1 h. […] Cooling to room temperature was followed by titration with 2 molar sodium hydroxide solution to pH 6.8, and the total volume was then made up to 10 ml with the abovementioned buffer solution (pH 6.8; titrated with NaOH). […] The clear supernatant was filtered through a 0.2 micrometer syringe filter, and the active substance concentration in this solution was determined by spectrophotometry.
(§2) The experiment was carried out like experiment A but 1.0 g of phospholipid (egg lecithin E 100, from Lipoid KG, Ludwigshafen) was weighed in addition to the active substance.
(§3) The experiment was carried out like experiment B, but after addition of the buffer solution (pH 1.9) and stirring at 50° C. (1 h), 100 microliters of a dilute aqueous solution of glacial acetic acid (120.1 g/l) were added, and this solution was then titrated to pH 4.6 with sodium hydroxide solution (2 molar).
The pH was adjusted to 4.8.

Series [2] can be described thus: Active substance content of solution after 0.2 μm filtration (spectrophotometry). Type of series: physicochemical. Here is the method: A derivative of these bisnaphthalimides [drawing 1] was used to investigate the solubility in aqueous formulations as follows: […]
as §1, with “spectrophotometry. The active substance content in this solution was below 0.1 mg/ml.” for “spectrophotometry.”
as §2, §3

Series [3] can be described thus: Physical stability of the solutions (precipitation / flocculation). Type of series: physicochemical. The procedure: as §1, with “spectrophotometry. The active substance content in this solution was below 0.1 mg/ml.” for “spectrophotometry.”
as §2
The active substance content of the solution which had been titrated to pH 6.8 and sterilized by filtration was 4.0 mg/ml. The solution slowly flocculated out after about 12-24 h, both at room temperature and in a refrigerator.
as §3

For series [4] the following is noted: cited from earlier work.
The conditions of series [5]: eg. intravenous administration; cited from earlier work.
The mark [6] stands for this setting: Comparative Example: like Example 1, experiment C.

In brackets after ≈: the same amount, converted by molar mass. Where a name gives a salt, the structure may show the parent alone. Read-outs that look alike come from different tables or passages of the source. Bounds are passed on as bounds.

For the compound `O=C(C(c1ccccc1)c1ccccc1)N1CCN(CC(O)COc2cccc3ncccc23)CC1` (stereo not drawn), the sterile filtration entry in series [1] is on record as “It was possible to sterilize the resulting solution by filtration”.

Take `O=C1c2cccc3cc([N+](=O)[O-])cc(c23)C(=O)N1CCCCNCCCN1C(=O)c2cccc3cc([N+](=O)[O-])cc(c23)C1=O` [Z]: the solubility was 4000 µg/mL (≈ 6.72 mM) in series [2] (Experiment C: egg lecithin E 100, acetic acid, titrated to pH 4.6, sterile filtration); 4000 µg/mL (≈ 6.72 mM) in series [2] (egg lecithin e 100 solution, Experiment B (comparative): 1.0 g egg lecithin E 100, titrated to pH 6.8, sterilized by filtration); under 100 µg/mL in series [2] (sucrose/phosphoric acid buffer, Experiment A (comparative): no phospholipid, sucrose/phosphoric acid, titrated to pH 6.8, 0.2 μm filtered). Also, in series [3] (Experiment A: buffer pH about 1.9, 50° C, 1 h, no phospholipid), the “dissolution in acidic buffer” value was “It was possible in this way to dissolve a considerable portion of the active substance”. Besides, in series [3] (Experiment A: no phospholipid, cooled, titrated to pH 6.8), the precipitation on titration result is listed as “Most of the active substance precipitated again”. Moreover, in series [3] (Experiment B: egg lecithin, pH 6.8, room temperature and refrigerator), the “time to flocculation of solution” value was 12 to 24 h. Further, in series [3] (Experiment C: egg lecithin, pH 4.6, room temperature and refrigerator), the stability of solution result was “stable for weeks without flocculating out”.

Take `CCS(=O)(=O)Oc1ccc2c(C)c(C)c(=O)oc2c1` [esuprone]: in series [1] (setting [6]), the “filtration through 0.2 μm or 0.45 μm filter” value is “could not be filtered either through a 0.2 μm filter or through a 0.45 μm filter” and the “particle size of resulting solution” value is given as “contained large colloidal particles”. Further, the solubility in water in series [4] (water) was 15 µg/mL (≈ 0.0531 mM).

Regarding `CC(C)[C@@](C#N)(CCCN(C)CCc1ccccc1)c1ccccc1` [levemopamil hydrochloride], the solubility in water result in series [4] (in words) is “adequately soluble in water”. Besides, the “local intolerance on administration” value in series [5] was “show problems due to local intolerance on administration (eg. vein irritation on intravenous administration)”.

As to dolastatin 15, the sterile filtration entry in series [1] (Example 3: active substance 10 mg/ml, phospholipid 100 mg/ml) is “It was possible to sterilize the solution by filtration”. Moreover, in series [4] (in words), the solubility in water result is given as “low solubility in water”.
